Test results reported in patent publication US7138361B2, “Herbicidal heterocycles” (E. I. du Pont de Nemours and Company, priority 2000, dated 2006).

Key:
Format in all cases: in vivo
[1] = system: Surinam grass (Brachiaria decumbens); experiment: Test C preemergence
Summary of the method: (§1)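 Compounds in non-phytotoxic solvent with surfactant applied preemergence to planted seeds and postemergence to plants at 1- to 4-leaf stage (2–18 cm). Kept in greenhouse 12–14 days, then visually rated against controls on a 0 (no effect) to 100 (complete control) scale.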

[2] = system: woolly cupgrass (Eriochloa villosa); experiment: Test C preemergence
Summary of the method: as §1

soybean (Glycine max) = experiment: Test C preemergence
Summary of the method: as §1

[3] = system: cocklebur (Xanthium strumarium); experiment: Test C preemergence; conditions: for Plant response rating, Cocklebur: scale 0 to 100, 0 no effect, 100 complete control
Summary of the method: as §1

[4] = system: crabgrass (Digitaria sanguinalis); experiment: Test C preemergence
Summary of the method: as §1

[5] = system: common ragweed (Ambrosia elatior); experiment: Test C preemergence
Summary of the method: as §1

Nightshade = experiment: Test C preemergence
[6] = system: morningglory (Ipomoea hederacea); experiment: Test C preemergence; conditions: preemergence
Summary of the method: as §1

[7] = system: lambsquarters (Chenopodium album); experiment: Test C preemergence
Summary of the method: as §1

kochia (Kochia scoparia) = experiment: Test C preemergence; conditions: for Plant response rating, Kochia: scale 0 to 100, 0 no effect, 100 complete control
Summary of the method: as §1

[8] = system: goosegrass (Eleusine indica); experiment: Test C preemergence
Summary of the method: as §1

[9] = system: velvetleaf (Abutilon theophrasti); experiment: Test C preemergence; conditions: preemergence
Summary of the method: as §1

corn (Zea mays) [10] = experiment: Test C preemergence
Summary of the method: as §1

[11] = system: johnsongrass (Sorghum halepense); experiment: Test C preemergence
Summary of the method: as §1

[12] = system: barnyardgrass (Echinochloa crus-galli); experiment: Test B postemergence
Summary of the method: (§2)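 Greenhouse test: chemicals are formulated in a surfactant-containing non-phytotoxic solvent and applied either preemergence to planted seeds or postemergence to plants 2 to 18 cm tall. Response is rated visually versus controls after 13 to 15 days, 0 meaning no effect and 100 complete control.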

[13] = system: Surinam grass (Brachiaria decumbens); experiment: Test B postemergence
Summary of the method: as §2

[14] = system: lambsquarters (Chenopodium album); experiment: Test B postemergence; conditions: Rate 125 g/ha, scale 0 to 100, 0 no effect, 100 complete control
Summary of the method: as §2

[15] = system: velvetleaf (Abutilon theophrasti); experiment: Test B postemergence; conditions: Rate 125 g/ha, scale 0 to 100, 0 no effect, 100 complete control
Summary of the method: as §2

[16] = system: morning glory (Ipomoea hederacea); experiment: Test B postemergence; conditions: Rate 125 g/ha, scale 0 to 100, 0 no effect, 100 complete control
Summary of the method: as §2

corn (Zea mays) [17] = experiment: Test B postemergence
Summary of the method: as §2

[18] = Rate 125 g/ha, scale 0 to 100, 0 no effect, 100 complete control
[19] = preemergence, Rate 62 g/ha, scale 0 to 100
[20] = preemergence, Rate 500 g/ha, visual evaluation after 12 to 14 days
[21] = preemergence, Rate 250 g/ha, scale 0 to 100, 0 no effect, 100 complete control
[22] = Rate 250 g/ha, scale 0 to 100, 0 no effect, 100 complete control
[23] = Rate 500 g/ha, visual evaluation after 12 to 14 days
[24] = Rate 500 g/ha, scale 0 to 100, 0 is no effect, 100 is complete control, 13 to 15 days

In the case of `CCCC(C)c1ccn(C2OCN(c3cccc(OC(F)F)c3)C2=O)n1` (stereo not drawn) [Compound 132], the “Plant response rating, Surinam grass” value [1, 18] is reported as 100, the “Plant response rating, Surinam grass” value [1, 19] is reported as 90 and the “Plant response rating (0 to 100), Surinam grass” value [1, 20] is reported as 100. For the same compound, the “Plant response rating, Surinam grass” value [1, 21] was 100, the “Plant response rating, Cupgrass, Woolly” value [2, 18] was 100 and the “Plant response rating, Cupgrass, Woolly” value [2, 19] was 90. For the same compound, the “Plant response rating (0 to 100), Cupgrass, Woolly” value [2, 20] was 100, the “Plant response rating, Cupgrass, Woolly” value [2, 21] was 100 and the “Plant response rating, Soybean” value (soybean (Glycine max); [18]) was 20. For the same compound, the “Plant response rating, Soybean” value (soybean (Glycine max); [19]) was 20, the “Plant response rating (0 to 100), Soybean” value (soybean (Glycine max); [20]) was 30 and the “Plant response rating, Soybean” value (soybean (Glycine max); [21]) was 20. For the same compound, the “Plant response rating, Cocklebur” value ([3]; Rate 125 g/ha) was 0, the “Plant response rating (0 to 100), Cocklebur” value [3, 20] was 0 and the “Plant response rating, Cocklebur” value ([3]; preemergence, Rate 250 g/ha) was 0. The “Plant response rating, Crabgrass” value [4, 18] was 100, the “Plant response rating, Crabgrass” value [4, 19] was 100 and the “Plant response rating (0 to 100), Crabgrass” value [4, 20] was 100. The “Plant response rating, Crabgrass” value [4, 21] was 100, the “Plant response rating, Ragweed, Common” value [5, 18] was 0 and the “Plant response rating, Ragweed, Common” value [5, 19] was 0. For the same compound, the “Plant response rating (0 to 100), Ragweed, Common” value [5, 20] was 0, the “Plant response rating, Ragweed, Common” value [5, 21] was 0 and the “Plant response rating, Nightshade” value (Nightshade; Rate 62 g/ha, scale 0 to 100) was 0. The “Plant response rating, Nightshade” value (Nightshade; [18]) was 0, the “Plant response rating, Nightshade” value (Nightshade; [22]) was 20 and the “Plant response rating, Morningglory” value ([6]; Rate 62 g/ha, scale 0 to 100) was 0. For the same compound, the “Plant response rating (0 to 100), Morningglory” value [6, 23] was 0, the “Plant response rating, Morningglory” value [6, 22] was 0 and the “Plant response rating, Lambsquarters” value [7, 18] was 100. For the same compound, the “Plant response rating, Lambsquarters” value [7, 19] was 100, the “Plant response rating (0 to 100), Lambsquarters” value [7, 20] was 100 and the “Plant response rating, Lambsquarters” value [7, 21] was 100. For the same compound, the “Plant response rating, Kochia” value (kochia (Kochia scoparia); Rate 125 g/ha) was 100, the “Plant response rating (0 to 100), Kochia” value (kochia (Kochia scoparia); [20]) was 100 and the “Plant response rating, Kochia” value (kochia (Kochia scoparia); preemergence, Rate 250 g/ha) was 100. For the same compound, the “Plant response rating, Goosegrass” value [8, 18] was 100, the “Plant response rating, Goosegrass” value [8, 19] was 100 and the “Plant response rating (0 to 100), Goosegrass” value [8, 20] was 100. The “Plant response rating, Goosegrass” value [8, 21] was 100, the “Plant response rating, Velvetleaf” value ([9]; Rate 62 g/ha, scale 0 to 100) was 0 and the “Plant response rating (0 to 100), Velvetleaf” value [9, 23] was 0. For the same compound, the “Plant response rating, Velvetleaf” value [9, 22] was 0, the “Plant response rating, Corn” value (corn (Zea mays) [10]; [18]) was 10 and the “Plant response rating, Corn” value (corn (Zea mays) [10]; [19]) was 0. The “Plant response rating (0 to 100), Corn” value (corn (Zea mays) [10]; [20]) was 90, the “Plant response rating, Corn” value (corn (Zea mays) [10]; [21]) was 70 and the “Plant response rating, Johnsongrass” value [11, 18] was 80. The “Plant response rating, Johnsongrass” value [11, 19] was 50, the “Plant response rating (0 to 100), Johnsongrass” value [11, 20] was 100 and the “Plant response rating, Johnsongrass” value [11, 21] was 100. For the same compound, the “Plant response rating, Barnyardgrass” value [12, 18] was 0, the “Plant response rating, Barnyardgrass” value [12, 24] was 30 and the “Plant response rating, Surinam grass” value [13, 18] was 0. The “Plant response rating, Surinam grass” value [13, 24] was 0, the “Plant response rating, Lambsquarters” value [14] was 70 and the “Plant response rating, Velvetleaf” value [15] was 0. The “Plant response rating, Morningglory” value [16] was 0, the “Plant response rating, Corn” value (corn (Zea mays) [17]; [18]) was 0 and the “Plant response rating, Corn” value (corn (Zea mays) [17]; [24]) was 0.
